Here are results for eight molecules from US12448383B2, “Compounds and methods for treatment of viral infections” (priority 2022, dated 2025).

Data set [1] is described as follows: CC50 MT4 cytotoxicity (Cell-Titer Glo). Format: cell-based. Particulars: human. The method, boiled down: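 CC50 values are the concentrations cutting viability by 50%, fitted by non-linear regression against untreated (100%) and 2 μM puromycin (0%) controls. Cell-Titer Glo luminescence measured after 4-5 days at 37° C exposure of uninfected MT-4 and HEp-2 cells to 3-fold dilutions spanning 15 nM to 100,000 nM.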

The test system of data set [2] is Caco-2 cells (clone C2BBe1). The experiment in a line: CACO-2 permeability. The conditions noted are these: for DM Caco2 A to B: apical to basolateral, donor pH 6.5, receiver pH 7.4; for DM Caco2 B to A: basolateral to apical. The class given is in vitro ADME. Details: unit not given here. The method, boiled down:
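A-to-B and B-to-A flux measured by LC-MS/MS from receiver samples taken at 1 and 2 h, with donor sampled at 0 and 2 h and recovery checked. Buffers: pH 6.5 HBSS with 200 μM BNPP on the donor side, pH 7.4 with BSA on the receiver side. Monolayers were 21-day cultures, TEER-verified, in duplicate wells.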
Background: Caco-2 cells form a polarised layer with tight junctions and transporters.

In data set [3] the test system is Respiratory syncytial virus recombinant with luciferase (RSV-Luc5) in HEp-2 cells. In words: microbe, parasite or virus in culture. Format: cell-based. The conditions noted are these: human respiratory syncytial virus, HEp-2, 72 h, read-out: RSV Hep2 EC50.
The test system of data set [4] is Respiratory syncytial virus recombinant with luciferase (RSV-Luc5) in Normal Human Bronchial Epithelial (NHBE) cells. The experiment in a line: microbe, parasite or virus in culture. Format: cell-based.
Data set [5] can be described thus: Stability in pH7 buffered solution. The class given is physicochemical. Particulars: pH7 phosphate buffer, 40° C., Table N2. How it is done: (§1) Example N: Stability in p112 and p117 Buffered Solutions
(§2) The aqueous stability of compounds over a time of 24 hours at 40° C. was assessed. Stability was determined in 50 mM phosphate buffered solutions at both pH2 and pH7, with 150 mM NaCl (to achieve isotonicity). 3-5 mg of solid compounds were added to 7 mL scintillation vials. Acetonitrile was added to each vial to produce a 1 mg/mL stock solution. Stock solutions were diluted to 50 μg/mL in either pH2 or pH7 phosphate buffer, to a volume of 1 mL. For each compound and pH condition, 50 μg/mL samples were prepped in duplicate. One sample was placed on the UPLC tray at 40° C. for analysis, and the second sample was placed in a 40° C. oven for storage. Sample preps for each compound were offset by 40 minutes to account for run time on UPLC.
(§3) Concentration timepoints were measured at 0, 3, 6, 9, and 12 hrs. After 24 hrs, samples in the 40° C. oven were removed and analyzed by UPLC.
(§4) In FIG. 2, % AN stands for % area normalized. That is, % AN is the area of the compound peak relative to the sum of areas of all the peaks in the UPLC chromatogram. For example, if there were two peaks, compound peak with an area of 9 and another peak with an area of 1, then the % AN of the compound peak would be 90%.

The nature of data set [6]: Stability in pH2 buffered solution. The class given is physicochemical. The conditions noted are these: pH2 phosphate buffer, 40° C., 24 h; Table N2. The protocol:
as §1, §2, §3, §4

The test system of data set [7] is SARS Coronavirus 2 recombinant with NanoLuc (SARS-CoV2-NLuc) in A549-hACE2 cells. The experiment in a line: organism not typed. Format: cell-based.
Another data set is described as follows: Plasma stability. The class given is in vitro ADME. On the set-up: unit not given here. The conditions noted are these: 37° C., 2 μM substrate. A digest of the protocol: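 LC-MS (Q-Exactive, 5 ppm tolerance, 0.1% formic acid water/acetonitrile gradient) quantified compound in quenched aliquots. Aliquots were taken at 0.05, 0.5, 1, 2, 3 and 4 hr and quenched with internal-standard solution, and supernatants were diluted with water after centrifugation.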

Data set [8] is described as follows: GI S9 stability - no PMSF. Format: in vitro ADME. Details: GIS9-HUMAN-NoPMSF T1/2: unit: min. The conditions noted are these: human intestinal S9, PMSF-free; for half-life at 2 µM: pH 7.4, read-out: GIS9-HUMAN-NoPMSF T1/2. The method, boiled down: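 Stability was assessed by Q-Exactive LC-MS peak area ratios against internal standard, tracking loss of parent and appearance of nucleoside metabolite Reference Compound A. Incubations used 2 μM compound in 1 mg/mL intestinal S9 without PMSF (PBS, pH 7.4), with six samples taken over 120 min.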

The nature of data set [9]: Thermodynamic solubility in pH7 buffered solution. Particulars: 50 mM phosphate buffer pH7, 150 mM NaCl, ambient temperature, 24 hours. How it is done: Solubility was determined at ambient temperature in a 50 mM phosphate buffered pH7 solution with 150 mM NaCl (to achieve isotonicity). Solids were added to the buffered solution in 1.5-mL Eppendorf tubes, vortexed for 1 minute, then agitated for 24 hours in an Eppendorf ThermoMixer C. […] Supernatants were diluted to a volume of 1 mL with 30:70 v/v acetonitrile:water. All diluted supernatants were analyzed by UPLC using a Waters Acquity UPLC with a PDA UV detector.

Read-outs that look alike come from different tables or passages of the source.

A word on the CC50: it is the concentration at which the toxic effect on the cells reaches its halfway point. In general, EC50 refers to the concentration that produces a half-maximal response. Regarding `CCCC(=O)Nc1ncnn2c([C@]3(C#N)O[C@H](COC(=O)OCC(C)C)[C@@H](O)[C@H]3O)ccc12` [Compound 21, [(2R,3S,4R,5R)-5-[4-(butanoylamino)pyrrolo[2,1-f][1,2,4]triazin-7-yl]-5-cyano-3,4-dihydroxy-tetrahydrofuran-2-yl]methyl isobutyl carbonate], the CC50 in [1] was more than 50 µM. In addition, in [2], the “DM Caco2 A to B” value was determined as 1.36. For the same molecule, the “DM Caco2 B to A” value in data set [2] is on record as 8.33. For the same molecule, the EC50 worked out at 2380 nM in data set [3]; 2250 nM in data set [4] (72 h, read-out: RSV NHBE EC50); 12.9 µM in data set [7] (48 h; read-out: SARS-CoV2 EC50). For the same molecule, the “pH 7 Stability 24 h % AN” value in data set [5] came to 92 % AN. In addition, the “pH 2 Stability 24 h % AN” value in data set [6] worked out at 0 % AN.
With `CCC(C)(C)OC(=O)OC[C@H]1O[C@@](C#N)(c2ccc3c(N)ncnn23)[C@H](OC(=O)OC(C)(C)CC)[C@@H]1OC(=O)OC(C)(C)CC` [Compound 60, (2R,3R,4R,5R)-2-(4-aminopyrrolo[2,1-f][1,2,4]triazin-7-yl)-2-cyano-5-((((tert-pentyloxy)carbonyl)oxy)methyl)tetrahydrofuran-3,4-diyl di-tert-pentyl bis(carbonate)], the CC50 in data set [1] (uninfected MT-4 cells, 4-5 days, read-out: MT4 CC50) stood at 32.9 µM. Moreover, in data set [2], the “DM Caco2 A to B” value stood at 0.12 and the “DM Caco2 B to A” value is listed as 0.32. In addition, the “STA Human Plasma 37” value in “Plasma stability” turned out to be 1584. The EC50 in data set [4] (72 h, read-out: RSV NHBE EC50) is 1580 nM. In addition, in [5], the “pH 7 Stability 24 h % AN” value is 0 % AN. Also, the “pH 2 Stability 24 h % AN” value in data set [6] came out at 0 % AN. The half-life at 2 µM in [8] came to 44.9 min. The EC50 in data set [7] (48 h, read-out: SARS-CoV2 EC50) came out at 2.69 µM.
In turn, `CC(C)OC(=O)Nc1ncnn2c([C@]3(C#N)O[C@H](COC(=O)OC(C)(C)C)[C@@H](O)[C@H]3O)ccc12` [Compound 63, isopropyl (7-((2R,3R,4S,5R)-5-(((tert-butoxycarbonyl)oxy)methyl)-2-cyano-3,4-dihydroxytetrahydrofuran-2-yl)pyrrolo[2,1-f][1,2,4]triazin-4-yl)carbamate] came in with a half-maximal cytotoxic concentration (CC50) in data set [1] of more than 50 µM. In data set [2], the “DM Caco2 A to B” value amounted to 1.18 and the “DM Caco2 B to A” value worked out at 12.46. Besides, in “Plasma stability”, the “STA Human Plasma 37” value turned out to be 1584. Also, the EC50 in data set [4] (72 h, read-out: RSV NHBE EC50) was found to be 41600 nM. For the same molecule, in data set [5], the “pH 7 Stability 24 h % AN” value was 0 % AN. In addition, in [9], the “Sol pH 7” value is 0.82. In data set [6], the “pH 2 Stability 24 h % AN” value turned out to be 3 % AN. For the same molecule, the half-life at 2 µM in data set [8] turned out to be 181 min. Besides, the EC50 in data set [7] (48 h; read-out: SARS-CoV2 EC50) is more than 50 µM.
As to `CC(C)OC(=O)OC[C@H]1O[C@@](C#N)(c2ccc3c(N)ncnn23)[C@@H]2OC(=O)O[C@@H]21` [Compound 66, ((3aR,4R,6R,6aR)-6-(4-aminopyrrolo[2,1-f][1,2,4]triazin-7-yl)-6-cyano-2-oxotetrahydrofuro[3,4-d][1,3]dioxol-4-yl)methyl isopropyl carbonate], the CC50 in data set [1] was more than 50 µM. Besides, the EC50 in [3] is 847 nM; in data set [4] (72 h, read-out: RSV NHBE EC50), 499 nM; in data set [7] (48 h; read-out: SARS-CoV2 EC50) it was 3.21 µM. The “STA Human Plasma 37” value in “Plasma stability” worked out at 24.2. In addition, in [5], the “pH 7 Stability 24 h % AN” value came out at 0 % AN. Also, the “pH 2 Stability 24 h % AN” value in [6] was 2 % AN. The half-life at 2 µM in data set [8] amounted to 0.491 min.
In the case of `CC(C)(OC(=O)OC[C@H]1O[C@@](C#N)(c2ccc3c(N)ncnn23)[C@H](O)[C@@H]1O)C(F)(F)F` [Compound 67, ((2R,3S,4R,5R)-5-(4-aminopyrrolo[2,1-f][1,2,4]triazin-7-yl)-5-cyano-3,4-dihydroxytetrahydrofuran-2-yl)methyl (1,1,1-trifluoro-2-methylpropan-2-yl) carbonate], the CC50 in data set [1] was more than 50 µM. Further, in data set [2], the “DM Caco2 A to B” value came to 0.99 and the “DM Caco2 B to A” value came out at 9.76. In addition, the “STA Human Plasma 37” value in the data set “Plasma stability” is reported as 1177.1. The EC50 in data set [4] (72 h, read-out: RSV NHBE EC50) was determined as 1520 nM. In data set [5], the “pH 7 Stability 24 h % AN” value is on record as 91 % AN. Also, the “pH 2 Stability 24 h % AN” value in data set [6] was determined as 95 % AN. In addition, the half-life at 2 µM in data set [8] was found to be 10.5 min. Further, the EC50 in data set [7] (48 h; read-out: SARS-CoV2 EC50) is 12.8 µM.
Regarding `COCC(C)(C)OC(=O)OC[C@H]1O[C@@](C#N)(c2ccc3c(N)ncnn23)[C@H](O)[C@@H]1O` [Compound 96, ((2R,3S,4R,5R)-5-(4-aminopyrrolo[2,1-f][1,2,4]triazin-7-yl)-5-cyano-3,4-dihydroxytetrahydrofuran-2-yl)methyl (1-methoxy-2-methylpropan-2-yl) carbonate], in [1], the CC50 was more than 50 µM. Besides, in data set [2], the “DM Caco2 A to B” value was 0.09 and the “DM Caco2 B to A” value was 4.05. Further, in “Plasma stability”, the “STA Human Plasma 37” value is listed as 1584. Besides, the EC50 in data set [4] (72 h, read-out: RSV NHBE EC50) was more than 50000 nM. Further, in data set [5], the “pH 7 Stability 24 h % AN” value came to 95 % AN. In data set [9], the “Sol pH 7” value was found to be 1.25. Besides, in [6], the “pH 2 Stability 24 h % AN” value was determined as 96 % AN. Also, the “GIS9-HUMAN-NoPMSF T1/2” value in data set [8] was 789.
As to `CCOC(=O)[C@H](C)OC(=O)OC[C@H]1O[C@@](C#N)(c2ccc3c(N)ncnn23)[C@H](O)[C@@H]1O` [Compound 97, ethyl (S)-2-(((((2R,3S,4R,5R)-5-(4-aminopyrrolo[2,1-f][1,2,4]triazin-7-yl)-5-cyano-3,4-dihydroxytetrahydrofuran-2-yl)methoxy)carbonyl)oxy)propanoate], in [2], the “DM Caco2 A to B” value was 0.04 and the “DM Caco2 B to A” value is recorded as 2.15. Moreover, the “STA Human Plasma 37” value in “Plasma stability” turned out to be 6.669. Also, the EC50 in data set [4] (72 h, read-out: RSV NHBE EC50) was 6160 nM. Moreover, the “pH 7 Stability 24 h % AN” value in [5] was 85 % AN. Besides, in [9], the “Sol pH 7” value is 6.02. Besides, the “pH 2 Stability 24 h % AN” value in data set [6] is reported as 98 % AN. Also, in [8], the half-life at 2 µM was 3.65 min.
As usually defined, the logD is lipophilicity at a set pH, counting ionised and neutral species. `CC(C)OC(=O)[C@H]([C@@H](C)OC(=O)OC[C@H]1O[C@@](C#N)(c2ccc3c(N)ncnn23)[C@H](O)[C@@H]1O)N(C)C` [Compound 145, isopropyl (2S,3R)-3-[[(2R,3S,4R,5R)-5-(4-aminopyrrolo[2,1-f][1,2,4]triazin-7-yl)-5-cyano-3,4-dihydroxy-tetrahydrofuran-2-yl]methoxycarbonyloxy]-2-(dimethylamino)butanoate] came in with a CC50 in data set [1] of more than 50 µM. For the same molecule, in [2], the “DM Caco2 A to B” value stood at 0.2 and the “DM Caco2 B to A” value is reported as 8.475. In addition, the “STA Human Plasma 37” value in the data set “Plasma stability” is reported as 299.49. Moreover, in data set [4] (read-out: EC50 RSVFluc-NHBE 384 V2), the EC50 came out at 3150 nM. Besides, the “pH 7 Stability 24 h % AN” value in data set [5] is listed as 0 % AN. In data set [6], the “pH 2 Stability 24 h % AN” value worked out at 93 % AN. In addition, the half-life at 2 µM in data set [8] stood at 32.8 min. Besides, in the data set “physchem”, the logD was determined as 1.85. For the same molecule, the EC50 in data set [7] (A549; read-out: EC50 SARS CoV2 NanoLuc A549 384) is 3.48 µM.
